According to ChEMBL document CHEMBL1152676, “Combretastatin-like chalcones as inhibitors of microtubule polymerization. Part 1: synthesis and biological evaluation of antivascular activity” (Bioorg Med Chem, 2009):

What was measured:
[1] = test system: K562; experiment: Antiproliferative activity against human K562 cells after 5 days by MTT assay; type: functional, cell-based
[2] = test system: K562; experiment: Cell cycle arrest in human K562 cells assessed as accumulation at G0/G1 phase at 20 nM after 24 hrs by propidium iodide staining-based flow cytometry; type: functional
[3] = Inhibition of tubulin assembly by Woods method
[4] = test system: K562; experiment: Cell cycle arrest in human K562 cells assessed as accumulation at G2/M phase at 20 nM after 24 hrs by propidium iodide staining-based flow cytometry; type: functional
[5] = test system: K562; experiment: Cell cycle arrest in human K562 cells assessed as accumulation at S phase at 20 nM after 24 hrs by propidium iodide staining-based flow cytometry; type: functional

SMILES | IC50 ([1]; Homo sapiens, K562, 120 h) | other results
O=C(/C=C/c1ccc(F)cc1)c1ccc(F)cc1 | 4900 nM | –
COc1ccc(CC(C)C(=O)c2cc(OC)c(OC)c(OC)c2)cc1O (stereo unspecified) | 30 nM | Activity [2]: 36%; IC50 [3]: 4000 nM; Activity [4]: 28%; Activity [5]: 36%
CCCO/C(=C\c1cc(F)c(OC)c(F)c1)C(=O)c1cc(OC)c(OC)c(OC)c1 | 220 nM | –
COc1ccc(CCC(=O)c2cc(OC)c(OC)c(OC)c2)cc1O | 1000 nM | –
Cc1ccc(/C=C/C(=O)c2ccc(C)cc2)cc1 [4,4'-DIMETHYLCHALCONE] | 11000 nM | –
COc1ccc(CC(C)C(O)c2cc(OC)c(OC)c(OC)c2)cc1O (stereo unspecified) | 600 nM | –
COc1ccc([C@H]2O[C@@H]2C(=O)c2ccc(C)cc2)cc1 (racemic) | 15000 nM | –
COc1ccc(/C=C(\C)C(=O)c2cc(OC)c(OC)c(OC)c2)cc1[N+](=O)[O-] | 60 nM | Activity [2]: 36%; IC50 [3]: > 10000 nM; Activity [4]: 28%; Activity [5]: 36%
COc1ccc(C(=O)CCc2cc(OC)c(OC)c(OC)c2)cc1 | 12000 nM | –
COc1ccc(C(=O)/C(C)=C/c2ccc(OC)c(OP(=O)(O)O)c2)cc1 | – | IC50 ([1]; k562): 500 nM
Cc1ccc(C(=O)[C@H]2O[C@@H]2c2ccc(C)cc2)cc1 (racemic) | 12000 nM | –
COc1ccc(CCC(O)c2cc(OC)c(OC)c(OC)c2)cc1 (stereo unspecified) | 4000 nM | –
COc1ccc(CCCc2cc(OC)c(OC)c(OC)c2)cc1 | 500 nM | –
COc1ccc(C(=O)/C=C/c2ccc(Cl)cc2)c(O)c1 | 9700 nM | –
COc1cc(C(=O)/C=C/c2cc(F)c(OC)c(F)c2)cc(OC)c1OC | 6200 nM | Activity [2]: 20%; IC50 [3]: 12000 nM; Activity [4]: 61%; Activity [5]: 19%
COc1ccc(CCC(O)c2cc(OC)c(OC)c(OC)c2)cc1O (stereo unspecified) | 1000 nM | –
COc1ccc(/C=C(\C)C(O)c2cc(OC)c(OC)c(OC)c2)cc1O (stereo unspecified) | 90 nM | Activity [2]: 44%; IC50 [3]: > 10000 nM; Activity [4]: 24%; Activity [5]: 33%
COc1cc(C(=O)[C@H]2O[C@@H]2c2cc(OC)c(OC)c(OC)c2)cc(OC)c1OC (relative stereo) | 3700 nM | –
CCO/C(=C\c1ccc(OC)c(O)c1)C(=O)c1cc(OC)c(OC)c(OC)c1 | 2.6 nM | –
CCO/C(=C\c1cc(F)c(OC)c(F)c1)C(=O)c1cc(OC)c(OC)c(OC)c1 | 230 nM | –

SMILES | IC50 ([1]; Homo sapiens, K562, 120 h) | other results
COc1ccc(C(=O)[C@H]2O[C@@H]2c2ccc(C)cc2)cc1 (relative stereo) | > 30000 nM | –
COc1ccc(OC)c(/C=C/C(=O)c2c(OC)cc(OC)cc2OC)c1 | 7200 nM | –
CCC/C(=C\c1ccc(OC)c(O)c1)C(=O)c1cc(OC)c(OC)c(OC)c1 | 2.2 nM | –
CCO/C(=C\c1ccc(OC)c(F)c1)C(=O)c1cc(OC)c(OC)c(OC)c1 | 11 nM | –
COc1ccc(CCC(=O)c2cc(OC)c(OC)c(OC)c2)cc1 | 10000 nM | –
COc1ccc(/C=C/C(=O)c2ccc(C)cc2)cc1 | 20000 nM | –
COc1ccc(/C=C(\C)C(=O)c2ccc(OC)cc2)cc1 | 1900 nM | –
COc1ccc(C(=O)/C=C/c2ccc(OC)c(OP(=O)(O)O)c2)cc1 | – | IC50 ([1]; k562): 300 nM
COc1ccc([C@H]2O[C@@H]2C(=O)c2cc(OC)c(OC)c(OC)c2)cc1 (racemic) | 4900 nM | –
COc1cc(C(=O)[C@H]2O[C@@H]2c2ccc(C)cc2)cc(OC)c1OC (racemic) | 3400 nM | –
O=C(/C=C/c1ccccc1)c1ccccc1 [CHALCONE] | 3800 nM | –
COc1ccc(C(=O)[C@H]2O[C@@H]2c2ccc(OC)cc2)cc1 (racemic) | > 30000 nM | –
COc1cc(/C=C/C(=O)c2cc(OC)c(OC)c(OC)c2)cc(OC)c1OC | 1500 nM | –
CCCO/C(=C\c1ccc(OC)c(F)c1)C(=O)c1cc(OC)c(OC)c(OC)c1 | 20 nM | –
COc1ccc(/C=C/C(O)c2cc(OC)c(OC)c(OC)c2)cc1O (stereo unspecified) | 500 nM | –
COc1ccc(/C=C/C(=O)c2ccc(O)cc2)cc1 | 9900 nM | –
COc1cc(OC)c(C=C(C)C(=O)c2cc(OC)c(OC)c(OC)c2)c(OC)c1 | > 25000 nM | –
COc1ccc(C(=O)/C(C)=C/c2cc(OC)ccc2OC)cc1 | 2300 nM | –
COc1cc(/C=C(\C)C(=O)c2cc(OC)c(OC)c(OC)c2)cc(OC)c1OC | 2500 nM | –
COc1ccc(/C=C/C(O)c2cc(OC)c(OC)c(OC)c2)cc1 (stereo unspecified) | 4000 nM | –

More lines, main results first:

IC50 ([1]; Homo sapiens, K562, 120 h) | SMILES | other results
6400 nM | COc1ccc(OC)c(/C=C/C(=O)c2ccc3c(c2)OCO3)c1 | –
300 nM | COc1ccc(/C=C/C(=O)c2cc(OC)c(OC)c(OC)c2)cc1F | Activity [2]: 9%; IC50 [3]: 1200 nM; Activity [4]: 72%; Activity [5]: 19%
2700 nM | COc1ccc(/C=C/C(=O)c2ccc(OC)cc2OC)cc1 [METOCHALCONE] | –
2900 nM | COc1cc(/C=C/C(=O)c2ccc3c(c2)OCO3)cc(OC)c1OC | –
4000 nM | COc1ccc(C(=O)/C=C/c2cc(OC)ccc2OC)c(Cl)c1 | –
15000 nM | COc1ccc(/C=C/C(=O)c2ccc(OC)cc2)cc1 [4,4'-DIMETHOXYCHALCONE] | –
> 30000 nM | COc1ccc(C(=O)[C@H]2O[C@@H]2c2ccc(OC)c(OC)c2)cc1 (racemic) | –
1200 nM | COc1cc(C(=O)/C=C/c2ccc(O)c(O)c2)cc(OC)c1OC | –
350 nM | COc1ccc(/C=C/C(=O)c2ccc(OC)c(OC)c2OC)cc1F | Activity [2]: 37%; IC50 [3]: 7900 nM; Activity [4]: 49%; Activity [5]: 14%
10000 nM | COc1ccc(/C=C/C(=O)c2ccc(OC)c(OC)c2)cc1 | –
1600 nM | COc1cc(/C=C/C(=O)c2ccc(F)cc2)cc(OC)c1OC | –
1100 nM | COc1ccc(C(=O)/C=C/c2cc(OC)c(OC)c(OC)c2)cc1OC | –
3500 nM | COc1cc(C(=O)/C=C/c2cc(OC)c(OC)c(OC)c2)ccc1O | –
300 nM | COc1ccc(/C=C/C(=O)c2cc(OC)c(OC)c(OC)c2)cc1 | –
1600 nM | COc1cc(/C=C/C(=O)c2ccccc2)cc(OC)c1OC | –
1500 nM | COc1cc(C(=O)/C=C/c2ccc(F)cc2)cc(OC)c1OC | –

IC50 ([1]; Homo sapiens, K562, 120 h) | SMILES | other results
4400 nM | COc1ccc(C(=O)/C=C/c2cc(OC)c(OC)c(OC)c2)c(O)c1 | –
9900 nM | COc1cc(C(=O)/C=C/c2ccc(OCc3ccccc3)cc2)cc(OC)c1OC | –
4000 nM | COc1ccc(/C=C/C(=O)c2cc(OC)c(OC)c(OC)c2)cc1[N+](=O)[O-] | –
1500 nM | COc1cc(C(=O)/C=C/c2ccc(Cl)cc2)cc(OC)c1OC | –
7100 nM | COc1ccc(/C=C/C(=O)c2ccc3c(c2)OCO3)cc1OC | –
5600 nM | COc1cc(/C=C/C(=O)c2ccc3c(c2)OCCO3)cc(OC)c1OC | –
8000 nM | O=C(/C=C/c1ccc2c(c1)OCO2)c1ccc2c(c1)OCCO2 | –
300 nM | COc1ccc(/C=C/C(=O)c2ccc(OC)c(OC)c2OC)cc1 | –
1500 nM | COc1ccc(/C=C/C(=O)c2ccc(C)cc2)cc1O | –
40 nM | COc1ccc(OC)c(C(=O)/C=C/c2ccc(N(C)C)cc2)c1 | –
3800 nM | COc1cc(C(=O)/C=C/c2ccc(Cl)cc2Cl)cc(OC)c1OC | –
5100 nM | O=C(/C=C/c1ccc2c(c1)OCO2)c1ccc(F)cc1 | –
16000 nM | COc1ccc(C(=O)/C=C/c2ccc(OC)c(OC)c2)c(O)c1 | –
1700 nM | COc1ccc(C(=O)/C=C/c2ccc(O)c(O)c2)c(OC)c1OC | –
300 nM | COc1ccc(OC)c(C(=O)/C=C/c2ccc3c(c2)OCCO3)c1 | –
2200 nM | COc1ccc(/C=C/C(=O)c2ccc(OC)c(OC)c2)cc1OC | –
